Assay results published in publication PMC5049494, “Nitrotriazole-based acetamides and propanamides with broad spectrum antitrypanosomal activity” (European Journal of Medicinal Chemistry, 2016).
Like-named read-outs stand apart in the source and are kept apart here.

Legend:
[1] = system: L. donovani axenic, strain MHOM-ET-67/L82 amastigotes; test: In vitro activity against L. donovani; assay type: cell-based; conditions: for IC50: Leishmania donovani, L. donovani axenic amastigotes MHOM-ET-67/L82, means of 2 to 3 measurements, SD < 5%, read-out: L.d. IC50; for SI (L.d.): IC50 in L6 cells/IC50 in L. donovani; for antileishmanial activity class (TDR criteria): L. donovani
Method: (§3) The concentration of compound that inhibits parasite growth by 50% (IC50) was calculated from dose response curves for each parasite (Table 1). In addition, compounds were tested for toxicity in L6 rat skeletal myoblasts, the host cells for T. cruzi amastigotes, in order to calculate a selectivity index for each parasite [SI = IC50L6/IC50parasite]
(§4) In vitro activity against T. cruzi, T. b. rhodesiense, L. donovani and cytotoxicity assessment using L6 cells (rat skeletal myoblasts) was determined using a 96-well plate format as previously described [37]. Data were analyzed with the graphic program Softmax Pro (Molecular Devices, Sunnyvale, CA, USA), which calculated IC50 values by linear regression from the sigmoidal dose inhibition curves.

[2] = system: L6 cells (rat skeletal myoblasts); test: Cytotoxicity in the host L6 cells; assay type: cell-based; conditions: for fold less toxic towards L6 cells relative to unsubstituted compounds 10 and 10a: 9 vs 10, 9a vs 10a
Method: (§1) Compounds in Table 1 were screened for anti-parasitic activity against three trypanosomatids: T. cruzi, T. b. rhodesiense and Leishmania donovani and compared with previously made analogs shown in orange and designated with a. […] In addition, compounds were tested for toxicity in L6 rat skeletal myoblasts, the host cells for T. cruzi amastigotes, in order to calculate a selectivity index for each parasite [SI = IC50L6/IC50parasite] (Table 1). The TDR (Special Programme for Research and Training in Tropical Diseases, World Health Organization) criteria were adopted to interpret antiparasitic activity and selectivity.
(§2) In vitro activity against T. cruzi, T. b. rhodesiense, L. donovani and cytotoxicity assessment using L6 cells (rat skeletal myoblasts) was determined using a 96-well plate format as previously described. Data were analyzed with the graphic program Softmax Pro (Molecular Devices, Sunnyvale, CA, USA), which calculated IC50 values by linear regression from the sigmoidal dose inhibition curves.

[3] = Cytotoxicity in the host L6 cells; assay type: cell-based, rat; conditions: rat, L6 cells (rat skeletal myoblasts); cytotoxicity in host L6 cells; read-out: Cyt. L6 IC50
Method: as §1, §2

[4] = system: T. cruzi, strain Tulahuen C4 amastigotes; test: In vitro activity against T. cruzi; assay type: cell-based; conditions: for SI (T. c.): IC50 in L6 cells/IC50 in T. cruzi; for IC50: Trypanosoma cruzi, T. cruzi Tulahuen C4 amastigotes, means of 2 to 3 measurements, SD < 5%, read-out: T. c. IC50; for Bnz/comp: fold antichagasic potency relative to Bnz (T. cruzi IC50 ratio)
Method: as §3, §4

[5] = system: T.b. rhodesiense, strain STIB 900 trypomastigotes; test: In vitro activity against T. b. rhodesiense; assay type: cell-based; conditions: for anti-HAT activity class (TDR criteria): T. b. rhodesiense; for IC50: Trypanosoma brucei, T.b. rhodesiense STIB 900 trypomastigotes, means of 2 to 3 measurements, SD < 5%, read-out: T.b.r. IC50; for SI (T.b.r.): IC50 in L6 cells/IC50 in T.b. rhodesiense; for fold more potent against T. b. rhodesiense than the corresponding acetamide: propanamide vs acetamide analog
Method: as §1, §2

[6] = system: purified his-tagged recombinant TbNTR; test: Enzymatic activity with type I TbNTR; assay type: biochemical, T. brucei; conditions: substrate 100 μM, NADH 100 μM
Method: Enzyme specific activity was measured as oxidized NADH (nmol) per min per mg of protein. […] As we have reported before with other classes of 3-nitrotriazole-based antitrypanosomal compounds, no correlation between anti-HAT activity and TbNTR specific activity was observed, [13], [15], [16], [17], [18].
Recombinant TbNTR was prepared and assayed as previously described, [39]. The specific activity of purified his-tagged TbNTR was assessed spectrophotometrically at 340 nm using various nitrotriazole substrates (100 μM) and NADH (100 μM) and expressed as nmol NADH oxidized min^−1 mg^−1 of enzyme.

[7] = system: bloodstream form T.b. brucei recombinant parasites expressing wild type (-tet) or elevated (+tet) levels of TbNTR; test: microbe, parasite or virus in culture; assay type: cell-based; conditions: Trypanosoma brucei
Method: The BSF of T. brucei parasites were seeded at 1 × 10^3 mL^−1 in 200 μL of growth medium containing different concentrations of nitroheterocycle. Where appropriate, induction of the TbNTR was carried out by adding tetracycline (1 μg/mL). After incubation for 3 days at 37 °C, 20 μL of Alamar blue was added to each well and the plates incubated for a further 16 h. The cell density of each culture was determined as described before [20] and the IC50 established.

[8] = system: bloodstream form T.b. brucei wild type; test: T. brucei antiproliferating assay, wild type; assay type: cell-based; conditions: means from 4 experiments ± SD
Method: The BSF of T. brucei parasites were seeded at 1 × 10^3 mL^−1 in 200 μL of growth medium containing different concentrations of nitroheterocycle. Where appropriate, induction of the TbNTR was carried out by adding tetracycline (1 μg/mL). After incubation for 3 days at 37 °C, 20 μL of Alamar blue was added to each well and the plates incubated for a further 16 h. The cell density of each culture was determined as described before and the IC50 established.

[9] = system: transgenic T. cruzi parasites expressing firefly luciferase; assay type: in vivo, Balb/c mice; conditions: for parasite load after 10 days of treatment: acute murine model, p < 0.0001; for parasitic level after 5-day treatment: compared to untreated control
Method: A fast luminescence assay was used in an acute infected murine model, in which transgenic T. cruzi parasites expressing firefly luciferase were injected in 5 week-old Balb/c mice. Mice were injected with D-luciferin before imaging. Groups of 5 mice/group were treated i.p. for 10 consecutive days with each compound, at 13 or 15 mg/kg/day. […] The mean ratio of parasite levels was calculated after 5 and 10 days of treatment.
For in vivo studies, a Brazilian strain trypomastigotes from transgenic T. cruzi parasites expressing firefly luciferase were used as described before. Briefly, parasites (10^5 trypomastigotes) were injected in 5 week-old Balb/c mice (Taconic) and three days later mice were anesthesized by inhalation of isofluorane, followed by an injection with 150 mg/kg of D-luciferin potassium-salt in PBS. Mice were imaged 5–10 min after injection of luciferin with an IVIS 100 (Xenogen, Alameda, CA) and the data acquisition and analysis were performed with the software LivingImage (Xenogen) as described before. Treatment with test compounds started 4 days post infection at 13 or 15 mg/kg/day × 10 days, given i.p. The vehicle control was 2% methylcellulose +0.5% Tween 80 and groups of 5 mice/group were used. Mice were imaged after 5 and 10 days of treatment. The ratio of parasite levels was calculated for each animal dividing the luciferase signal after treatment by the luciferase signal on the first imaging (before treatment). Mean values of all animals in each group ± SD were used for plotting.

[10] = system: L6 cells (rat skeletal myoblasts); set-up: method as in PMID 26344593, PMID 25580906; conditions: previously evaluated compounds (orange, designated a); read-out: Cyt. L6 IC50; cited from earlier work
[11] = system: T.b. rhodesiense, strain STIB 900 trypomastigotes; set-up: method as in PMID 26344593, PMID 25580906; conditions: cited from earlier work
[12] = read-out: IC50 value T.b. brucei TbNTR (+tet)
[13] = read-out: IC50 value T.b. brucei TbNTR (-tet)
[14] = Trypanosoma brucei, read-out: IC50 value T.b. brucei Wild type, bloodstream form
[15] = propanamide vs acetamide analog

CN(C(=O)Cn1cnc([N+](=O)[O-])n1)c1ccc(C(F)(F)F)cc1 [Compound 2, N-methyl-2-(3-nitro-1H-1,2,4-triazol-1-yl)-N-(4-(trifluoromethyl)phenyl)acetamide]
IC50 [1]: 47700 nM | fold decrease in toxicity against L6 cells compared to 2a ([2]; compared with 2a): 2 fold | IC50 [3]: 254000 nM | SI (T. c.) [4]: ~165 | IC50 [4]: 1540 nM | fold decrease in antichagasic activity compared to 2a ([4]; compared with 2a): 1.6 fold | fold more potent towards T. cruzi amastigotes than 2-nitroimidazole counterpart 3 ([4]; compared with 3): 32 fold | Bnz/comp [4]: 1.4 | anti-HAT activity class (TDR criteria) [5]: inactive | IC50 [5]: 37400 nM | melting point: 133 to 134 °C

O=C(CCn1cnc([N+](=O)[O-])n1)Nc1ccc(Oc2ccc(Cl)cc2)cc1 [Compound 6, N-(4-(4-chlorophenoxy)phenyl)-3-(3-nitro-1H-1,2,4-triazol-1-yl)propanamide]
IC50 [1]: 1150 nM | TbNTR specific enzyme activity, fold greater than benznidazole [6]: ≤ 4 fold | IC50 [3]: 17300 nM | IC50 [7, 12]: 340 nM | IC50 [7, 13]: 620 ± 30 nM | IC50 [8, 14]: ~650 nM | IC50 ([8]; read-out: IC50 value T.b. brucei Wild type, bloodstream form): 640 ± 20 nM | toxicity symptoms in treated mice ([9]; 13 mg/kg/day i.p. x 10 days): did not look very healthy, although no deaths occurred | parasite load after 10 days of treatment ([9]; 13 mg/kg/day i.p. x 10 days): undetectable levels | parasitic level after 5-day treatment ([9]; 13 mg/kg/day i.p.): Statistically significant reduction in parasitic level | SI (T. c.) [4]: 3343 | IC50 [4]: 5 nM | Bnz/comp [4]: 441 | SI (T.b.r.) [5]: 418 | IC50 [5]: 41 nM | fold more potent against T. b. rhodesiense than the corresponding acetamide [5]: 32 fold

N#Cc1ccc(-c2ccc(NC(=O)CCn3cnc([N+](=O)[O-])n3)cc2)cc1 [Compound 9, N-(4′-cyano-[1,1′-biphenyl]-4-yl)-3-(3-nitro-1H-1,2,4-triazol-1-yl)propanamide]
SI (L.d.) [1]: 73 | antileishmanial activity class (TDR criteria) [1]: moderately active (‘moderate activity’ (IC50 between 1.0 and 6.0 μM)) | IC50 [1]: 3170 nM | fold less toxic towards L6 cells relative to unsubstituted compounds 10 and 10a [2]: > 6 fold | IC50 [3]: 230000 nM | IC50 [7, 12]: 120 ± 10 nM | IC50 [7, 13]: 550 ± 40 nM | IC50 [8, 14]: 120 ± 10 nM | toxicity symptoms in treated mice ([9]; 15 mg/kg/day i.p. x 10 days): No toxicity symptoms were observed | parasite load after 10 days of treatment ([9]; 15 mg/kg/day i.p. x 10 days): undetectable levels | parasitic level after 5-day treatment ([9]; 15 mg/kg/day i.p.): Statistically significant reduction in parasitic level | SI (T. c.) [4]: 2453 | IC50 [4]: 94 nM | Bnz/comp [4]: 23 | fold more potent against T. cruzi than the acetamide analog [4, 15]: about 1.5 fold | SI (T.b.r.) [5]: 2527 | IC50 [5]: 91 nM | fold more potent against T. b. rhodesiense than the corresponding acetamide [5]: 3.7 fold

N#Cc1ccc(-c2ccc(NC(=O)Cn3cnc([N+](=O)[O-])n3)cc2)cc1 [Compound 9a]
IC50 [10]: 165000 nM | anti-HAT activity class (TDR criteria) ([11]; T. b. rhodesiense, previously evaluated acetamides): active | IC50 ([11]; previously evaluated compounds (orange, designated a), read-out: T.b.r. IC50): 336 nM | fold less toxic towards L6 cells relative to unsubstituted compounds 10 and 10a [2]: > 3.5 fold

O=C(CCn1cnc([N+](=O)[O-])n1)Nc1cccc(OCc2ccccc2)c1 [Compound 11, N-(3-(benzyloxy)phenyl)-3-(3-nitro-1H-1,2,4-triazol-1-yl)propanamide]
SI (L.d.) [1]: 35 | antileishmanial activity class (TDR criteria) [1]: moderate activity | IC50 [1]: 1140 nM | fold more potent against L. donovani than the acetamide analog [1, 15]: ca. 3 fold | TbNTR specific enzyme activity, fold greater than benznidazole [6]: ≤ 4 fold | IC50 [3]: 40200 nM | IC50 [7, 12]: 360 ± 20 nM | IC50 [7, 13]: 3700 ± 580 nM | IC50 [8, 14]: 4250 ± 160 nM | SI (T. c.) [4]: 868 | IC50 [4]: 46 nM | Bnz/comp [4]: 48 | SI (T.b.r.) [5]: 182 | IC50 [5]: 221 nM | fold more potent against T. b. rhodesiense than the corresponding acetamide [5]: 22 fold | melting point: 119 to 120 °C

O=C(Cn1cnc([N+](=O)[O-])n1)Nc1cc(-c2ccc(F)cc2)on1 [Compound 13, N-(5-(4-fluorophenyl)isoxazol-3-yl)-2-(3-nitro-1H-1,2,4-triazol-1-yl)acetamide]
SI (L.d.) [1]: 20.5 | antileishmanial activity class (TDR criteria) [1]: inactive | IC50 [1]: 9790 nM | TbNTR specific enzyme activity, fold greater than benznidazole [6]: ≤ 4 fold | IC50 [3]: 201000 nM | IC50 [8, 14]: 26600 ± 6020 nM | SI (T. c.) [4]: 590 | IC50 [4]: 340 nM | Bnz/comp [4]: 6.5 | SI (T.b.r.) [5]: 25.1 | anti-HAT activity class (TDR criteria) [5]: inactive | IC50 [5]: 8000 nM | melting point: > 220 °C

O=C(CCn1cnc([N+](=O)[O-])n1)Nc1cc(-c2ccc(Cl)cc2)no1 [Compound 14, N-(3-(4-chlorophenyl)isoxazol-5-yl)-3-(3-nitro-1H-1,2,4-triazol-1-yl)propanamide]
antileishmanial activity class (TDR criteria) [1]: moderately active (‘moderate activity’ (IC50 between 1.0 and 6.0 μM)) | IC50 [1]: 2950 nM | substrate of TbNTR / rate of metabolism [6]: equivalent rates | IC50 [3]: 179000 nM | IC50 [7, 12]: 290 ± 20 nM | IC50 [7, 13]: 910 ± 30 nM | IC50 [8, 14]: 270 ± 50 nM | IC50 [4]: 251 nM | Bnz/comp [4]: 9 | anti-HAT activity class (TDR criteria) [5]: moderately active (IC50 between 0.5 and 6.0 μM) | IC50 [5]: 651 nM

O=C(Cn1cnc([N+](=O)[O-])n1)Nc1cc(-c2ccc(Cl)cc2)no1 [Compound 15, N-(3-(4-chlorophenyl)isoxazol-5-yl)-2-(3-nitro-1H-1,2,4-triazol-1-yl)acetamide]
antileishmanial activity class (TDR criteria) [1]: inactive | IC50 [1]: 12500 nM | substrate of TbNTR / rate of metabolism [6]: equivalent rates | IC50 [3]: 112000 nM | IC50 [7, 12]: 1230 ± 60 nM | IC50 [7, 13]: 13300 ± 1400 nM | IC50 [8, 14]: 8650 ± 490 nM | IC50 [4]: 1530 nM | Bnz/comp [4]: 1.4 | anti-HAT activity class (TDR criteria) [5]: inactive | IC50 [5]: 15100 nM
